In patent US8440617B2, “Hyperbaric treatment in wound healing” (The Trustees of the University of Pennsylvania, priority 2007, dated 2013) one finds EPC mobilization data, which are given here for one substance.

Entries after “also recorded” stand apart in the source; their conditions may differ.

The test system of this experiment is circulating EPCs (CXCR4+/VEGFR2+, Tie2+/VEGFR2+). Put plainly: Circulating EPCs by flow cytometry in STZ-diabetic mice. It is filed as in vivo, mouse. To be noted: diabetic mice treated with insulin. As for the experimental part:
Tie2-GFP, wild-type or chimeric FVB mice at 6-12 wk of age were treated with STZ (Sigma-Aldrich) to induce diabetes. Mice were rendered diabetic by i.p. administration of 60 mg/kg STZ in 50 mM sodium citrate, pH 4.5, daily for 5 d. Control mice were treated with daily injections of citrate buffer. Serum glucose was measured from the mouse tail vein using a glucometer. Once serum glucose reached 250 mg/dL, mice were followed with daily measurements for 1 wk prior to use in experiments. Serum glucose levels in STZ mice averaged 461 mg/dL with a range of 372-520 mg/dL, while control mice serum glucose mean level was 120 mg/dL with a range of 94-135 mg/dL. Wounds were induced on the ventral surface of the mouse thigh using a 4 mm punch biopsy. Full-thickness skin was removed, exposing the underlying muscle.
For HBO treatment, mice were placed in an animal hyperbaric chamber (Reneau Corp.) and subjected to 100% oxygen at 2.4 atmospheres absolute (ATA) for 90 min (Davis Wound Healing Protocol). To measure continuous, real-time BM NO levels, NO microelectrodes was inserted into the femoral marrow cavity as previously described. An osteotomy was created on the patellar surface of the murine femur using a 25 G beveled needle, allowing the electrode to be lowered into the marrow space when the animal was placed in the hyperbaric chamber. In some mice, pretreatment with L-NAME (40 mg/kg i.p.) (Sigma-Aldrich) was given 2 h prior to exposure to HBO.
Mobilization of EPCs into circulation was studied using flow cytometry as previously described. Cells isolated from mice were incubated with various Abs (BD Biosciences). Isotype matched mouse immunoglobulins served as controls. One million viable cells were analyzed per sample using an LSR2 multicolor flow cytometer (BD Biosciences). Data was analyzed using FlowJo software (Treestar, Inc.).
Physiologically, increased levels of BM NO result in activation of MMP-9 and conversion of kit ligand to its soluble form, ultimately generating EPC release into circulation. To study the effects of the hyperoxia-induced rise in NO levels in the marrow cavity on mobilization of EPCs into circulation, peripheral blood from diabetic mice was analyzed for EPCs using flow cytometry. A determination of whether hyperoxia, induced by HBO, increases the number of circulating EPCs in the peripheral blood of diabetic mice was made. Specifically, peripheral blood of diabetic mice was examined 18 h after a single HBO treatment. After excluding dead DAPI^+labeled cells, candidate lymphocytes, identified by their typical appearance on forward and side scatter, were gated and CD45^+/CD3^+cell populations were excluded. […] Therefore, several marker combinations were used to quantitate circulating EPCs. […]
Background: In flow cytometry, cells or beads pass a laser one at a time.

Take “insulin: human insulin (NPH), 6 U/kg twice/d i.p.”: the EPC mobilization entry is recorded as “little effect; also recorded: does not increase”.
